Test results: patent US12590092B2, “Antiviral agents and uses thereof” (GRIFFITH UNIVERSITY, priority 2021, dated 2026)
Where two headings read alike, the source gives them in different places.

Key:
[1] = target: hPIV-1 C35 HN (neuraminidase function) (Human parainfluenza 1 virus, UniProt P16071); experiment: Neuraminidase inhibition assay (MUN), hPIV-1 C35; type: biochemical, hPIV-1 (strain C-35)
hPIV-3 C243 = experiment: In situ ELISA virus growth inhibition, hPIV-3 C243; type: cell-based, hPIV-3 (strain C243) in LLC-MK2 cells (Rhesus monkey kidney); conditions: read-out: Viral Growth IC50
[2] = target: hPIV-3 CI002 HN (neuraminidase function) (UniProt P08492, species not given/STRAIN_CI002); experiment: Neuraminidase inhibition assay (MUN), hPIV-3 CI002; type: biochemical, hPIV-3 (strain CI002, clinical isolate); conditions: pH 4.6
[3] = target: hPIV-3 C243 HN (haemagglutination function) (UniProt P08492, species not given/STRAIN_C243); experiment: Haemagglutination inhibition assay, hPIV-3 C243; type: biochemical, hPIV-3 (strain C-243); conditions: 1% human red blood cells
hPIV-3 CI002 = experiment: In situ ELISA virus growth inhibition, hPIV-3 CI002; type: cell-based; conditions: Human respirovirus 3, in Macaca mulatta, LLC-MK2 cells, 36-40 h, read-out: Viral Growth IC50 (converted)
[4] = target: hPIV-3 C243 HN (neuraminidase function) (UniProt P08492, species not given/STRAIN_C243); experiment: Neuraminidase inhibition assay (MUN), hPIV-3 C243; type: biochemical, hPIV-3 (strain C-243); conditions: pH 4.6
[5] = target: hPIV-3 CI002 HN (haemagglutination function) (UniProt P08492, species not given/STRAIN_CI002); experiment: Haemagglutination inhibition assay, hPIV-3 CI002; type: biochemical, hPIV-3 (strain CI002, clinical isolate); conditions: 1% human red blood cells
[6] = target: hPIV-1 C35 HN (haemagglutination function) (Human parainfluenza 1 virus, UniProt P16071); experiment: Haemagglutination inhibition assay, hPIV-1 C35; type: biochemical, hPIV-1 (strain C-35)
[7] = Human respirovirus 3, in Macaca mulatta, hPIV-3 C243, LLC-MK2 cells, in situ ELISA, 36-40 h
[8] = Human respirovirus 3, LLC-MK2, in Macaca mulatta

hPIV-1 C35 HN (neuraminidase function), sequence (P16071 whole entry): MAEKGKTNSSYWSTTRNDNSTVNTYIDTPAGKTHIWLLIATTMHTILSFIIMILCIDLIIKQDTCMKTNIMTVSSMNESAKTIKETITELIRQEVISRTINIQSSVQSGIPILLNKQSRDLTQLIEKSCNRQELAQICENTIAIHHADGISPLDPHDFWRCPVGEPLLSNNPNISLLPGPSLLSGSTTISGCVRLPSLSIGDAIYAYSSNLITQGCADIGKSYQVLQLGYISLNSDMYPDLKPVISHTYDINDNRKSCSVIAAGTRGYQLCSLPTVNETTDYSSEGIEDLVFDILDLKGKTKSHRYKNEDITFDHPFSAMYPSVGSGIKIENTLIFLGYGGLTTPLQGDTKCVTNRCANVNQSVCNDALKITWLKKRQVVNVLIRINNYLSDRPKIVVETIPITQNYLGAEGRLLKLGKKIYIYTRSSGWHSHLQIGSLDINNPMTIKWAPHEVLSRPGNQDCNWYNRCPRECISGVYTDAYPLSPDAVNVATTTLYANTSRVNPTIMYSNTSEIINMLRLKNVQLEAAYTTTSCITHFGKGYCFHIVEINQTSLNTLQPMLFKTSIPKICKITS
hPIV-1 C35 HN (haemagglutination function), sequence (P16071 whole entry): as above
hPIV-3 C243 HN (neuraminidase function), sequence (P08492 whole entry, change not shown): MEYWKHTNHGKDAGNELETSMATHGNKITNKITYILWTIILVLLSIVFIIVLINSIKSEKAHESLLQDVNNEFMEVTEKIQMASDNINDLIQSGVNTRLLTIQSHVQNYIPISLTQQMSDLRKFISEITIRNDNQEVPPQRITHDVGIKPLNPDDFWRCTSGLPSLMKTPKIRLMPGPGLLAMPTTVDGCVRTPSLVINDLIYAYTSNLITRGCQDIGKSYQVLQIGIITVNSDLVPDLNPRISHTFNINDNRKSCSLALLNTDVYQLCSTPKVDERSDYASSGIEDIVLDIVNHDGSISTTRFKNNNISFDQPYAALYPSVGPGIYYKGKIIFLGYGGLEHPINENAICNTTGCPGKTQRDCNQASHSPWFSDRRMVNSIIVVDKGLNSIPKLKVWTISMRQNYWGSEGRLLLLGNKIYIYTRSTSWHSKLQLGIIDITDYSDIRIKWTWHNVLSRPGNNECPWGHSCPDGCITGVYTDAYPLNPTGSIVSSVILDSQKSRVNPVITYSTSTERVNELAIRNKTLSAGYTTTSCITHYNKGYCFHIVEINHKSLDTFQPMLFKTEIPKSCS
hPIV-3 CI002 HN (neuraminidase function), sequence (P08492 whole entry, change not shown): as above
hPIV-3 CI002 HN (haemagglutination function), sequence (P08492 whole entry, change not shown): as above
hPIV-3 C243 HN (haemagglutination function), sequence (P08492 whole entry, change not shown): as above

Structure (SMILES)	IC50 [1]	IC50 (hPIV-3 C243; [7])	IC50 [2]	IC50 [3]	IC50 (hPIV-3 CI002)	IC50 [4]	IC50 [5]	IC50 (hPIV-3 C243; [8])	IC50 [6]
CC(C)C(=O)N[C@H]1[C@H]([C@H](O)[C@H](O)CO)OC(C(=O)O)=C[C@@H]1n1nnc2ccc3[nH]ccc3c21 (single isomer, unassigned) [IE1963-113a]	6.33 µM	111 ± 9.29 µM	34.9 µM	36.7 µM	42.6 µM	17 ± 0.764 µM	–	–	–
CC(C)C(=O)N[C@H]1[C@H]([C@H](O)[C@H](O)CO)OC(C(=O)O)=C[C@@H]1n1nnc2c3cc[nH]c3ccc21 (single isomer, unassigned) [IE1963-113b]	8.4 µM	24.4 ± 3.35 µM	17.1 µM	3 µM	8.7 µM	5.14 ± 0.777 µM	–	–	–
O=C(O)C1=C[C@H](n2cc3ccncc3n2)[C@@H](NC(=O)C(F)(F)F)[C@H]([C@H](O)[C@H](O)CO)O1 [JC2001-48, 2,6-Anhydro-3,4,5-trideoxy-5-(2,2,2-trifluoroacetamido)-4-(2H-pyrazolo[3,4-c]pyridin-2-yl)-D-glycero-D-galacto-non-2-enonic Acid]	1.71 µM	–	29.2 µM	13.1 µM	8.48 µM	21.5 µM	4.94 µM	54.5 ± 16.1 µM	0.27 µM
O=C(O)C1=C[C@H](n2cc3ncccc3n2)[C@@H](NC(=O)C(F)(F)F)[C@H]([C@H](O)[C@H](O)CO)O1 [JC2001-49, 2,6-Anhydro-3,4,5-trideoxy-5-(2,2,2-trifluoroacetamido)-4-(2H-pyrazolo[4,3-b]pyridin-2-yl)-D-glycero-D-galacto-non-2-enonic Acid]	23.2 µM	–	15.1 µM	13.1 µM	11.5 µM	8.33 ± 1.24 µM	4.94 µM	26.9 µM	14.8 µM
CC(C)C(=O)N[C@H]1[C@H]([C@H](O)[C@H](O)CO)OC(C(=O)O)=C[C@@H]1n1cc2cc(F)sc2c1C#N [RE1993-40]	5.41 µM	3.22 ± 0.726 µM	2.71 µM	0.735 ± 0.259 µM	3.96 µM	1.14 ± 0.021 µM	0.82 µM	–	22.2 µM
O=C(O)C1=C[C@H](n2cc3ccc4cccnc4c3n2)[C@@H](NC(=O)C(F)(F)F)[C@H]([C@H](O)[C@H](O)CO)O1 [RP1967-89, 2,6-Anhydro-3,4,5-trideoxy-5-(2,2,2-trifluoroacetamida)-4-(2H-pyrazolo[4,3-h]quinolin-2-yl)-D-glycero-D-galacto-non-2-enonic Acid]	88.9 µM	–	19.9 µM	3 µM	5 µM	5.52 ± 0.983 µM	4.94 µM	9.67 µM	> 200 µM
